The values below come from patent publication US20230055237A1, “COMPOUNDS AND METHODS FOR THE TREATMENT OF CYSTIC FIBROSIS” (Flatley Discovery Lab, LLC, priority 2019, published 2023).

In this assay the target is T1, CFTR (Homo sapiens, UniProt P13569, DEL508-508).
T1 construct: Primary CF airway epithelial cells were obtained from the UNC Cystic Fibrosis Tissue Procurement and Cell Culture Core; host or cells: primary CF airway epithelial cells, differentiated at the air-liquid interface
The assay can be described thus: Equivalent current assay in primary CF airway epithelial cells (NAUC, combination with 1st site corrector FDL169 or VX-809). It is filed as cell-based. The settings on record: 37° C., 24 h; for Nauc @ 3 μM: test compound 3 μM in combination with 1st site corrector VX-809 (3 μM); for Nauc @ 10 μM: test compound 10 μM in combination with 1st site corrector VX-809 (3 μM).

T1 sequence (P13569 with tags, fused parts or gaps DEL508-508): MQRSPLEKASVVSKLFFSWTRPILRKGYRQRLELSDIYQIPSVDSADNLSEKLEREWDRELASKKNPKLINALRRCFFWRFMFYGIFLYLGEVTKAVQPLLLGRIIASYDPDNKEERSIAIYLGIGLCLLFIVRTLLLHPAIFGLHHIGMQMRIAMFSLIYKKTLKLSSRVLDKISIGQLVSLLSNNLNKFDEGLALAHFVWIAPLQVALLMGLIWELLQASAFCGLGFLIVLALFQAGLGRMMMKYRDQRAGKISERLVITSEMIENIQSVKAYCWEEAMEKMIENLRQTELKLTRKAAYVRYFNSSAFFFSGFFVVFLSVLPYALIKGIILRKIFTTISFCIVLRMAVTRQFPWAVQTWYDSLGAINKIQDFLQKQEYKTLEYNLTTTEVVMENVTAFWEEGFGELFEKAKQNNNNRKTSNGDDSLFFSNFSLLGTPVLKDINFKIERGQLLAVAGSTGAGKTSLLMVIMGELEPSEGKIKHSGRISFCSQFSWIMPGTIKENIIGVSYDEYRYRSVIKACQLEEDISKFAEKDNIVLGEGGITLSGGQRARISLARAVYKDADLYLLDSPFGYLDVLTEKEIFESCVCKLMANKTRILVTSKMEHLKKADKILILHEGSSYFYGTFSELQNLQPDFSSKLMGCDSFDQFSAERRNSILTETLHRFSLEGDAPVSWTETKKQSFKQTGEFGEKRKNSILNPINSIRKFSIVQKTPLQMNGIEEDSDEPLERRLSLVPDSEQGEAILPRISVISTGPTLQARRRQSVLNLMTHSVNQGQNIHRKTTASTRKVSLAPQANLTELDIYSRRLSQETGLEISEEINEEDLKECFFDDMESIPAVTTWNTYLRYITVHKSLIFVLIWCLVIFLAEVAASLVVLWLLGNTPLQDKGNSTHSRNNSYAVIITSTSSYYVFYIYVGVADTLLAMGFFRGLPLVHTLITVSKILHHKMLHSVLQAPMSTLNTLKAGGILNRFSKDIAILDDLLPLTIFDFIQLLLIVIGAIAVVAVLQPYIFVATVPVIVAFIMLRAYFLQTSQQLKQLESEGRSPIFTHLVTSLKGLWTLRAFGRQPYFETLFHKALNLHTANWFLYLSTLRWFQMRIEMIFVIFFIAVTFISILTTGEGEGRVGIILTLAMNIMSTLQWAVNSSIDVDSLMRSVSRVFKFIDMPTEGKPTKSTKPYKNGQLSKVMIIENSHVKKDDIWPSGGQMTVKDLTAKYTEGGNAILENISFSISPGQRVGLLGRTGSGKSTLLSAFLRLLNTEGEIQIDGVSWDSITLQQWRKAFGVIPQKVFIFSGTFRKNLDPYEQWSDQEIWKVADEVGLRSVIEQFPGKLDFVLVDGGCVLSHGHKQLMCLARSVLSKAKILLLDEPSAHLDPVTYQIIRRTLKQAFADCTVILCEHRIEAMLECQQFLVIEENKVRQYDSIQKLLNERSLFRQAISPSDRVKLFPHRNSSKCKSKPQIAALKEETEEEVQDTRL

As to `O=C(Nc1cncc(C(F)(F)F)n1)C1C2CC3(CC3)CN2C2(C(=O)Nc3c(Cl)cc(Cl)cc32)C1C(=O)O` (stereo not drawn) [Example 2], the “Nauc @ 3 μM” value is “+ (NAUC “+” refers to an observed NAUC <140% of positive control)” and the “Nauc @ 10 μM” value is “++ (NAUC “++” refers to an observed NAUC 170-140% of positive control)”.

Turning to `C[C@]1(O)CC2C(C(=O)Nc3cc(Cl)cc(Cl)c3)C(C(=O)O)C3(C(=O)Nc4c(Cl)cc(Cl)cc43)N2C1` (stereo partly drawn) [Example 3], the “Nauc @ 3 μM” value is “+++ (NAUC “+++” refers to an observed NAUC>170% of positive control)” and the “Nauc @ 10 μM” value is “+++ (NAUC “+++” refers to an observed NAUC>170% of positive control)”.

Consider `C[C@]1(O)CC2C(C(=O)Nc3cc(Cl)c(OC(F)F)c(Cl)c3)C(C(=O)O)C3(C(=O)Nc4c(Cl)cc(Cl)cc43)N2C1` (stereo partly drawn) [Example 4], for which the “Nauc @ 3 μM” value is “+++ (NAUC “+++” refers to an observed NAUC>170% of positive control)” and the “Nauc @ 10 μM” value was “+++ (NAUC “+++” refers to an observed NAUC>170% of positive control)”.

Take `C[C@]1(O)CC2C(C(=O)Nc3cc(C(F)(F)F)cc(C(F)(F)F)n3)C(C(=O)O)C3(C(=O)Nc4c(Cl)cc(Cl)cc43)N2C1` (stereo partly drawn) [Example 5]: the “Nauc @ 3 μM” value is listed as “+++ (NAUC “+++” refers to an observed NAUC>170% of positive control)” and the “Nauc @ 10 μM” value is given as “+++ (NAUC “+++” refers to an observed NAUC>170% of positive control)”.

Consider `COc1cc(C(F)(F)F)cc(NC(=O)C2C3C[C@](C)(O)CN3C3(C(=O)Nc4c(Cl)cc(Cl)cc43)C2C(=O)O)n1` (stereo partly drawn) [Example 6], for which the “Nauc @ 3 μM” value is reported as “+++ (NAUC “+++” refers to an observed NAUC>170% of positive control)” and the “Nauc @ 10 μM” value was “+++ (NAUC “+++” refers to an observed NAUC>170% of positive control)”.

`O=C(Nc1cc(Cl)cc(Cl)c1)C1C2CC(F)(F)CN2C2(C(=O)Nc3c(Cl)cc(Cl)cc32)C1C(=O)O` (stereo not drawn) [Example 7]: the “Nauc @ 10 μM” value is given as “+++ (NAUC “+++” refers to an observed NAUC>170% of positive control)”.

As to `CC1(C)CC2C(C(=O)Nc3cc(Cl)c(OC(F)F)c(Cl)c3)C(C(=O)O)C3(C(=O)Nc4c(Cl)cc(Cl)cc43)N2C1` (stereo not drawn) [Example 8, 5,7-dichloro-1′-((3,5-dichloro-4-(difluoromethoxy)phenyl)carbamoyl)-6′,6′-dimethyl-2-oxo-1′,2′,5′,6′,7′,7a′-hexahydrospiro[indoline-3,3′-pyrrolizine]-2′-carboxylic acid], the “Nauc @ 3 μM” value is on record as “+++ (NAUC “+++” refers to an observed NAUC>170% of positive control)” and the “Nauc @ 10 μM” value is “+++ (NAUC “+++” refers to an observed NAUC>170% of positive control)”.

`COc1c(Cl)cc(NC(=O)C2C3CC(F)(F)CN3C3(C(=O)Nc4c(Cl)cc(Cl)cc43)C2C(=O)O)cc1Cl` (stereo not drawn) [Example 9]: the “Nauc @ 3 μM” value is recorded as “+++ (NAUC “+++” refers to an observed NAUC>170% of positive control)” and the “Nauc @ 10 μM” value is “+++ (NAUC “+++” refers to an observed NAUC>170% of positive control)”.

As to `O=C(Nc1cc(C(F)(F)F)ccn1)C1C2CCCN2C2(C(=O)Nc3c(Cl)cc(Cl)cc32)C1C(=O)O` (stereo not drawn) [Example 10], the “Nauc @ 3 μM” value was “++ (NAUC “++” refers to an observed NAUC 170-140% of positive control)” and the “Nauc @ 10 μM” value is recorded as “++ (NAUC “++” refers to an observed NAUC 170-140% of positive control)”.

`O=C(Nc1cc(C(F)(F)F)ccn1)C1C2CC(F)(F)CN2C2(C(=O)Nc3c(Cl)cc(Cl)cc32)C1C(=O)O` (stereo not drawn) [Example 11]: the “Nauc @ 3 μM” value is “+++ (NAUC “+++” refers to an observed NAUC>170% of positive control)” and the “Nauc @ 10 μM” value was “++ (NAUC “++” refers to an observed NAUC 170-140% of positive control)”.

`O=C(Nc1cc(Cl)c(OC(F)F)c(Cl)c1)C1C2CC3(CC3)CN2C2(C(=O)Nc3c(Cl)cc(Cl)cc32)C1C(=O)O` (stereo not drawn) [Example 12]: the “Nauc @ 3 μM” value is “+++ (NAUC “+++” refers to an observed NAUC>170% of positive control)” and the “Nauc @ 10 μM” value is “+++ (NAUC “+++” refers to an observed NAUC>170% of positive control)”.

For `CC1(C)CC2C(C(=O)Nc3cc(Cl)cc(Cl)c3)C(C(=O)O)C3(C(=O)Nc4c(Cl)cc(Cl)cc43)N2C1` (stereo not drawn) [Example 13], the “Nauc @ 3 μM” value was “+++ (NAUC “+++” refers to an observed NAUC>170% of positive control)” and the “Nauc @ 10 μM” value is listed as “+++ (NAUC “+++” refers to an observed NAUC>170% of positive control)”.

On to `COc1c(Cl)cc(NC(=O)C2C3CC(C)(C)CN3C3(C(=O)Nc4c(Cl)cc(Cl)cc43)C2C(=O)O)cc1Cl` (stereo not drawn) [Example 14], for which the “Nauc @ 3 μM” value is listed as “+++ (NAUC “+++” refers to an observed NAUC>170% of positive control)” and the “Nauc @ 10 μM” value is listed as “+++ (NAUC “+++” refers to an observed NAUC>170% of positive control)”.

With `O=C(Nc1cc(Cl)cc(Cl)c1)C1C2CCCN2C2(C(=O)Nc3c(Cl)cc(Cl)cc32)C1C(=O)O` (stereo not drawn) [Example 15], the “Nauc @ 3 μM” value is “+++ (NAUC “+++” refers to an observed NAUC>170% of positive control)” and the “Nauc @ 10 μM” value is “+++ (NAUC “+++” refers to an observed NAUC>170% of positive control)”.

On to `O=C(Nc1cc(Cl)cc(Cl)c1)C1C2CC3(CC3)CN2C2(C(=O)Nc3c(Cl)cc(Cl)cc32)C1C(=O)O` (stereo not drawn) [Example 16], for which the “Nauc @ 3 μM” value is reported as “+++ (NAUC “+++” refers to an observed NAUC>170% of positive control)” and the “Nauc @ 10 μM” value is listed as “+++ (NAUC “+++” refers to an observed NAUC>170% of positive control)”.

With `O=C(Nc1cncc(C(F)(F)F)n1)C1C2C[C@@](O)(C(F)(F)F)CN2C2(C(=O)Nc3c(Cl)cc(Cl)cc32)C1C(=O)O` (stereo partly drawn) [Example 17], the “Nauc @ 3 μM” value was “+++ (NAUC “+++” refers to an observed NAUC>170% of positive control)” and the “Nauc @ 10 μM” value is “+++ (NAUC “+++” refers to an observed NAUC>170% of positive control)”.

As to `O=C(Nc1cncc(C(F)(F)F)n1)C1C2C[C@H](C(F)(F)F)CN2C2(C(=O)Nc3c(Cl)cc(Cl)cc32)C1C(=O)O` (stereo partly drawn) [Example 18], the “Nauc @ 3 μM” value is recorded as “+ (NAUC “+” refers to an observed NAUC <140% of positive control)” and the “Nauc @ 10 μM” value was “+++ (NAUC “+++” refers to an observed NAUC>170% of positive control)”.

Take `O=C(Nc1cc(Cl)c(OC(F)F)c(Cl)c1)C1C2CCCN2C2(C(=O)Nc3c(Cl)cc(Cl)cc32)C1C(=O)O` (stereo not drawn) [Example 19]: the “Nauc @ 3 μM” value is “++ (NAUC “++” refers to an observed NAUC 170-140% of positive control)” and the “Nauc @ 10 μM” value is “+++ (NAUC “+++” refers to an observed NAUC>170% of positive control)”.

Consider `O=C(Nc1cc(Cl)c(OC(F)F)c(Cl)c1)C1C2CC(F)(F)CN2C2(C(=O)Nc3c(Cl)cc(Cl)cc32)C1C(=O)O` (stereo not drawn) [Example 20], for which the “Nauc @ 3 μM” value is on record as “+++ (NAUC “+++” refers to an observed NAUC>170% of positive control)” and the “Nauc @ 10 μM” value is on record as “+++ (NAUC “+++” refers to an observed NAUC>170% of positive control)”.

As to `O=C(Nc1cncc(C(F)(F)F)n1)C1C2CC3(CC3)CN2C2(C(=O)Nc3c(Cl)cc(Cl)cc32)C1C(=O)O` (stereo not drawn) [Example 21], the “Nauc @ 3 μM” value is on record as “+++ (NAUC “+++” refers to an observed NAUC>170% of positive control)” and the “Nauc @ 10 μM” value is “+++ (NAUC “+++” refers to an observed NAUC>170% of positive control)”.

In the case of `COc1cc(C(F)(F)F)cc(NC(=O)C2C3C[C@@](O)(C(F)(F)F)CN3C3(C(=O)Nc4c(Cl)cc(Cl)cc43)C2C(=O)O)n1` (stereo partly drawn) [Example 22], the “Nauc @ 3 μM” value is “++ (NAUC “++” refers to an observed NAUC 170-140% of positive control)” and the “Nauc @ 10 μM” value is “+++ (NAUC “+++” refers to an observed NAUC>170% of positive control)”.

In the case of `O=C(Nc1cncc(C(F)(F)F)n1)C1C2CC(F)(F)CN2C2(C(=O)Nc3c(Cl)cc(Cl)cc32)C1C(=O)O` (stereo not drawn) [Example 23], the “Nauc @ 3 μM” value was “++ (NAUC “++” refers to an observed NAUC 170-140% of positive control)” and the “Nauc @ 10 μM” value is listed as “+ (NAUC “+” refers to an observed NAUC <140% of positive control)”.

`O=C(Nc1cc(Cl)cc(Cl)c1)C1CN(C(=O)CCc2ccccc2)C2(C(=O)Nc3c(Cl)cc(Cl)cc32)C1C(=O)O` (stereo not drawn) [Example 24]: the “Nauc @ 3 μM” value is listed as “+++ (NAUC “+++” refers to an observed NAUC>170% of positive control)” and the “Nauc @ 10 μM” value is reported as “+ (NAUC “+” refers to an observed NAUC <140% of positive control)”.

With `O=C(Nc1cc(Cl)cc(Cl)c1)C1CN(S(=O)(=O)CCc2ccccc2)C2(C(=O)Nc3c(Cl)cc(Cl)cc32)C1C(=O)O` (stereo not drawn) [Example 25], the “Nauc @ 3 μM” value is “+ (NAUC “+” refers to an observed NAUC <140% of positive control)” and the “Nauc @ 10 μM” value is reported as “++ (NAUC “++” refers to an observed NAUC 170-140% of positive control)”.

In the case of `CCC(=O)N1C(C(C)C)C(C(=O)Nc2cc(Cl)cc(Cl)c2)C(C(=O)O)C12C(=O)Nc1c(Cl)cc(Cl)cc12` (stereo not drawn) [Example 26], the “Nauc @ 3 μM” value is reported as “++ (NAUC “++” refers to an observed NAUC 170-140% of positive control)” and the “Nauc @ 10 μM” value was “+++ (NAUC “+++” refers to an observed NAUC>170% of positive control)”.

For the compound `O=C(Nc1cc(Cl)cc(Cl)c1)C1C(C(=O)O)C(c2cc(Cl)cc(Cl)c2)N2CCCC12` (stereo not drawn) [Example 27], the “Nauc @ 3 μM” value was “++ (NAUC “++” refers to an observed NAUC 170-140% of positive control)” and the “Nauc @ 10 μM” value was “++ (NAUC “++” refers to an observed NAUC 170-140% of positive control)”.

Turning to `O=C(Nc1cncc(C(F)(F)F)n1)C1C2CCCN2C2(C(=O)Nc3c(Cl)cc(Cl)cc32)C1C(=O)O` (stereo not drawn) [Example 29], the “Nauc @ 3 μM” value is recorded as “++ (NAUC “++” refers to an observed NAUC 170-140% of positive control)” and the “Nauc @ 10 μM” value is “+++ (NAUC “+++” refers to an observed NAUC>170% of positive control)”.

As for `O=C(Nc1cc(Cl)cc(Cl)c1)C1CN(C(=O)Nc2ccccc2)C2(C(=O)Nc3c(Cl)cc(Cl)cc32)C1C(=O)O` (stereo not drawn) [Example 30], the “Nauc @ 3 μM” value is “+ (NAUC “+” refers to an observed NAUC <140% of positive control)” and the “Nauc @ 10 μM” value is given as “++ (NAUC “++” refers to an observed NAUC 170-140% of positive control)”.

For `O=C(Nc1cc(Cl)cc(Cl)c1)C1CN(C(=O)NCc2ccccc2)C2(C(=O)Nc3c(Cl)cc(Cl)cc32)C1C(=O)O` (stereo not drawn) [Example 31], the “Nauc @ 3 μM” value is “+ (NAUC “+” refers to an observed NAUC <140% of positive control)” and the “Nauc @ 10 μM” value is listed as “+++ (NAUC “+++” refers to an observed NAUC>170% of positive control)”.
